Measurements published in PMC3359661, “FK228 Analogues Induce Fetal Hemoglobin in Human Erythroid Progenitors” (Anemia, 2012).
Values joined by “and” are separate entries in the source; they are usually repeats but may differ in a detail not shown here. Equal values may be shown once.

Key:
[1] = tested on: γ-globin transcription in primary erythroid progenitors; test: RT-qPCR of γ-globin mRNA in primary erythroid progenitors (two-phase liquid culture); type: cell-based, human; conditions: Day 11 erythroid progenitors treated 48 hr (Figure 3 legend), untreated normalized to one
Procedure: (§1) The two-phase liquid culture system was established as previously published by Fibach et al. using buffy coat mononuclear cells, purchased from Carter Blood Care (Fort Worth, TX) in accordance with the guidelines of the Institutional Review Board at the University of Texas at Dallas. During phase 1, cells were grown in IMDM medium with 30% fetal bovine serum and 50 ng/mL each of the granulocyte-monocyte colony-stimulating factor, Interleukin-3, and stem cell factor. Subsequently, phase 2 was initiated on day 7 with the addition of erythropoietin (2 U/mL) and stem cell factor (50 ng/mL). The cells were treated on Day 11 with the different test compounds and harvested on Day 14 (72 hr incubation).
Total RNA was isolated from samples using RNA Stat-60 (TEL-TEST “B” Inc., Friendswood, TX) and used for RT-qPCR analysis as previously published. […] The globin mRNA levels were calculated as a ratio of GAPDH (γ/GAPDH, β/GAPDH), and the γ/β-globin mRNA ratio was calculated by dividing γ/GAPDH by β/GAPDH.
Figure 3 JMA33 and JMA26 induce HbF in primary erythroid cells. (a) Day 11 erythroid progenitors were treated for 48 hr with the controls agents and the FK228 analogues shown and then analyzed by RT-qPCR. […] Data were calculated as the means ± SEM. […] The images generated were used to count 500 DAPI positive cells and the %FITC positive cells were calculated accordingly.

[2] = tested on: γ-globin promoter activity in KU812-γF/βR stable lines; test: KU812 dual-luciferase reporter stable lines (μLCRβprRluc AγprFluc), γ-globin promoter activity; type: cell-based, human; conditions: 48 hr; for Fold change (γ/γ + 2β): untreated normalized to one
From the text: KU812 stable cell lines were created by co-transfecting wild-type KU812 cells with pEGFP-NI (G418 selectable marker) and theμLCRβ prRluc ^A γ prFluc dual-reporter a kind gifts from Dr. George Stamatoyannopoulos (University of Washington). […] Likewise, 1.4 kb of human Aγ-globin promoter was inserted upstream of firefly luciferase to create ^A γ prFluc. The μLCR (locus control region), Pβ prRluc, and ^A γ prFluc fragments were subsequently cloned into the mammalian vector, pRL-null.
After 72 hr, G418 was added at a concentration of […] for 3 days then maintained under selection pressure indefinitely at a concentration of […]. KU812 stable lines were treated with the various drugs at the same concentrations described above. FK228 and analogues were screened at concentrations between 1–1000 nM for 48 hr and cell toxicity was monitored by 2% Trypan blue exclusion. The effect of drug treatments on γ-globin and β-globin promoter activity was monitored by luciferase assay.
Luciferase activity was monitored under the different experimental conditions using the Dual Luciferase Assay Reporter System (Promega, Madison, WI). The activity of firefly luciferase represents γ-globin promoter activity (γF), while the renilla luciferase is the read-out for β-globin promoter activity (βR). The β-globin promoter was strategically cloned between the LCR and γ-globin promoter to increase β expression, while simultaneously increasing the sensitivity of detection of γ-globin gene inducers.
After drug treatments, KU812 stable cells were washed with 1X phosphate buffered saline and lysed in 1X Passive Lysis Buffer for 15 min, then protein extracts were added to the Luciferase Assay Reagent II and firefly luciferase activity quantified in a Turner Designs TD-20/20 luminometer (Sunnyvale, CA). To measure βR activity, Stop & Glo Reagents was added to measure the renilla luciferase activity. Total protein was determined by Bradford assay on a Beckman DU 640 spectrophotometer (Chaska, MN) and luciferase activity was corrected for total protein.
Subsequently, three independent dual-luciferase reporter KU812 stable cell lines were established to analyze the ability FK228 analogues to induce γ-globin promoter activity without an effect on β-globin transcription. […] Since the firefly luciferase gene (γF) has approximately […] luminescence than the renilla gene (βR), the renilla activity was multiplied by two to adjust for the difference in luminescence yielding the γ/γ+2β final measurement. The FK228 analogues were examined at concentrations ranging from 1–1000 nM in the three stable lines. After 48-hour treatments, cells were harvested and protein isolated for luciferase activity using the Dual Luciferase Reporter Assay.

[3] = tested on: HbF levels in primary erythroid cells; test: HbF ELISA in primary erythroid cells; type: cell-based, human
Procedure: as §1
Total hemoglobin was quantified using 20 μL of protein extract from one million KU812 cells mixed with 5 mL of Drabkin's reagent (Sigma); then cyanmethemoglobin was measured at the 540 nm wavelength. HbF levels were quantified using the human Hemoglobin F ELISA Quantitation Kit (Bethyl Laboratory, Montgomery, TX). Briefly, 96-well plates were coated with sheep anti-human HbF antibody (1 mg/mL). After blocking with 1% bovine serum albumin, horse radish peroxidase-conjugated secondary antibody (1 mg/mL) was added. Raw data were analyzed using GraphPad PRISM (GraphPad Software, Inc., La Jolla, CA) and HbF levels were calculated as a ratio of total hemoglobin corrected for total protein (HbF/total Hb/total protein).

[4] = tested on: γ-promoter activity in GM979 stable line; conditions: μLCRβprRluc AγprFluc GM979 stable line; cited from earlier work
From the text: Many published studies have shown that primary erythroid cells remain the best system to confirm HbF-inducing agents and to serve as a predictor of efficacy in vivo. Human burst forming units—erythroid cells in clonogenic assays or erythroid progenitors grown in liquid culture [39, 41]—have been used to evaluate putative HbF inducers. However, these assays are not easily adaptable to large-scale drug screening, thus immortalized cell lines have been investigated for this purpose.

With FK228 the “induction of γ-globin transcription at the mRNA level” value [1] was at most 3.2 fold, the “γ/γ + 2β Mean” value ([2]; Line 1, firefly (γ) / renilla (β) luciferase corrected for total protein, mean, conc: Cys 10 mM, Hemin 50 μM, SAHA 2000 nM, FK228 1.5 nM, 1127Ox 1000 nM, JMA1 1.5 nM, JMA2 1.0 nM, JMA12 1000 nM, JMA26 500 nM, JMA33 1000 nM, JMA112 100 nM, untreated 0.0402) was 0.1197 and the “Fold change (γ/γ + 2β)” value ([2]; Line 1, concentrations as in E1) was 2.975. For the same substance, the “γ/γ + 2β Mean” value ([2]; Line 2, concentrations as in E1, untreated 0.1573) was 0.6167, the “Fold change (γ/γ + 2β)” value ([2]; Line 2, concentrations as in E1) was 3.929 and the “γ/γ + 2β Mean” value ([2]; Line 3, concentrations as in E1, untreated 0.0721) was 0.1583. For the same substance, the “Fold change (γ/γ + 2β)” value ([2]; Line 3, concentrations as in E1) was 2.194, the “Fold change in HbF levels” value ([3]; relative to untreated = 1, concentrations as in E7) was 2.4 fold and 2.454 fold and the “Fetal hemoglobin quantification, Mean (HbF/total Hb/total protein)” value ([3]; treated Day 11, harvested Day 14, conc: Cys 10 mM, Hemin 50 μM, SAHA 2000 nM, FK228 1.5 nM, JMA1 1.5 nM, JMA2 1.0 nM, JMA26 500 nM, JMA33 1000 nM, untreated 0.683) was 1.676. For the same substance, the “concentration inducing γ-promoter activity” value [4] was 1 nM.
